Measurements as given in patent US20180360917A1, “SINCALIDE FORMULATIONS AND METHODS OF USE” (Apicore LLC, priority 2017, published 2018).

How the values were obtained:
[1] = Oxidation of Sincalide methionine residues by trace metals with and without EDTA; assay type: physicochemical
Source text: Excipient impurities and/or stopper extractables can introduce trace metals into pharmaceutical formulations. Embodiments of the Sincalide formulations disclosed herein contain stabilizerichelator to inhibit the oxidation of the two methionine residues present in Sincalide (Met 3 and Met 6). Preferred chelators include edetic acid (EDTA) and derivatives thereof, including salts. […] In particular, copper and manganese, in the absence of EDTA, have the greatest oxidative effect on the methionine residues of Sincalide.

gallbladder = conditions: typical, patient pretreated before hepatobiliary imaging; cited from earlier work
[2] = Stability of Sincalide in 35 mM phosphate buffer over pH 3.0-9.1 (recovery by RP-HPLC); assay type: physicochemical
Protocol: Experiments were conducted to determine the effect of pH on the chemical stability of Sincalide. Chemical instability, or degradation, may be caused by, for example, oxidation, reduction, de-amidation, hydrolysis, imide formation, racemization, isomerization, and/or β-elimination. To examine the effect of pH on Sincalide in phosphate buffer solution, solutions of Sincalide (˜1.7, μg/mL) were prepared in 35 mM phosphate buffer and pH-adjusted with either dilute HCl or NaOH for final pH values ranging from 3.0-9.1. Using reverse-phase HPLC (RP-HPLC) with gradient elution and UV detection at 215 nm, Sincalide stability in solution was assessed by measuring the recovery of Sincalide at 0, 6, and 24 hours after pH adjustment.
A 24-hour study on the stability of Sincalide in phosphate buffer over the pH range of 3.0-9.1 was conducted. By measure of the percentage recovery, Sincalide was stable in 35 mM phosphate buffer solution at pH values ranging from 5.0-9.1 over a 24-hour period. At pH values <5.0, Sincalide degradation was evident even at the initial time point.

CSCC[C@H](NC(=O)[C@H](Cc1ccc(OS(=O)(=O)O)cc1)NC(=O)[C@@H](N)CC(=O)O)C(=O)NCC(=O)N[C@@H](Cc1c[nH]c2ccccc12)C(=O)N[C@@H](CCSC)C(=O)N[C@@H](CC(=O)O)C(=O)N[C@@H](Cc1ccccc1)C(N)=O [Sincalide, 1-De(5-oxo-L-glutamine-5-L-proline)-2-de-L-me-thioninecaerulein]
formation of Sincalide Met 3 and Met 6 mono sulfoxides ([1]; presence of EDTA): inhibitory effect | amounts of the degradants Sincalide Met 3 and Met 6 mono sulfoxides ([1]; presence of certain metals, absence of EDTA, copper and manganese greatest oxidative effect): increase | time to gallbladder contraction after injection (gallbladder): ≤ 15 min | pH values at which Sincalide was stable, by percentage recovery ([2]; 35 mM phosphate buffer solution, over a 24-hour period, RP-HPLC UV 215 nm): 5.0-9.1 | pH values at which Sincalide degradation was evident ([2]; 35 mM phosphate buffer, even at the initial time point): < 5.0
